The record followed here is patent US6906095B2, “Indolylalkylidenehydrazine-carboximidamide derivatives as 5-hydroxytryptamine-6 ligands” (Wyeth, priority 2002, dated 2005).

In this assay the target is T1, human cloned 5-HT6 receptors (Homo sapiens, UniProt P50406).
T1 construct: expressed in transfected cells; host or cells: Hela cells
In words: 5-HT6 binding affinity, [3H]-LSD displacement in membranes of Hela cells. The settings on record: for inhibition at 1 µM: read-out: % Inhibition.

Where [1] appears, read: test compound dose 100 nM, [3H]-LSD 3.0 nM.
Where [2] appears, read: test compound dose 1000 nM, [3H]-LSD 3.0 nM.

T1 sequence (P50406 whole entry): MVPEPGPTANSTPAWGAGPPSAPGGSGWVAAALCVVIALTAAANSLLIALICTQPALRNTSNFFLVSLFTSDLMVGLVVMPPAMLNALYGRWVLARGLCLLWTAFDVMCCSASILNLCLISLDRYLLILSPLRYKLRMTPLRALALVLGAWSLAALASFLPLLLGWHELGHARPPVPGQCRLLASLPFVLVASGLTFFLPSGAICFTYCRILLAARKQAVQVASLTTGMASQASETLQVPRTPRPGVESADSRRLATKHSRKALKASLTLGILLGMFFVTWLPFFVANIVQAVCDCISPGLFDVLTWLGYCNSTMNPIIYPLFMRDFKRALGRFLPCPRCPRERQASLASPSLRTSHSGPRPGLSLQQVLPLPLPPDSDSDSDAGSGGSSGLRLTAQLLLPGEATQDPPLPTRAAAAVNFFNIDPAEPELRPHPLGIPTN

Under setting [1], `COc1ccc2c(c1)c(C=NNC(=N)N)cn2S(=O)(=O)c1ccccc1` [Example 20, 2-{[5-methoxy-1-(phenylsulfonyl)-1H-indol-3-yl]methylidene}hydrazinecarboximidamide] showed an inhibition at 0.1 µM of 76.3%.
In turn, `CC(=NNC(=N)N)c1cn(S(=O)(=O)c2ccccc2)c2ccc(C#N)cc12` [Example 16, 2-{1-[5-cyano-1-(phenylsulfonyl)-1H-indol-3-yl]ethylidene}hydrazinecarboximidamide] yielded an inhibition at 0.01 µM (test compound dose 10 nM, [3H]-LSD 3.0 nM) of 40.6%.
With `CCCCC(=NNC(=N)N)c1cn(S(=O)(=O)c2ccccc2)c2ccccc12` [Example 67, 2-{1-[1-(phenylsulfonyl)-1H-indol-3-yl]pentylidene}hydrazinecarboximidamide], under setting [1], testing at 0.1 µM gave an inhibition of 66.3%.
The compound `CC(=NNC(=N)N)c1cn(S(=O)(=O)c2cc([N+](=O)[O-])ccc2C)c2ccccc12` [Example 46, 2-(1-{1-[(2-methyl-5-nitrophenyl)sulfonyl]-1H-indol-3-yl}ethylidene)hydrazinecarboximidamide] yielded an inhibition at 0.1 µM under setting [1] of 41%.
Still for that read-out and setting: then `CC(=NNC(=N)NCCO)c1cn(S(=O)(=O)c2ccccc2)c2ccccc12` [Example 127, N-(2-hydroxyethyl)-2-{1-[1-(phenylsulfonyl)-1H-indol-3-yl]ethylidene}hydrazinecarboximidamide], with 83.3%; and `COc1ccc(S(=O)(=O)n2cc(C(=NNC(=N)N)C3CC3)c3cc(Cl)ccc32)cc1OC` [Example 89, 2-[{5-chloro-1-[(3,4-dimethoxyphenyl)sulfonyl]-1H-indol-3-yl}(cyclopropyl)-methylidene]hydrazinecarboximidamide], with 71.9%.
With `CC(=NNC(=N)N)c1cn(S(=O)(=O)c2ccc(N)cc2)c2ccccc12` [Example 23, 2-(1-{1-[(4-aminophenyl)sulfonyl]-1H-indol-3-yl}ethylidene)hydrazinecarboximidamide], the Ki came out at 2 nM. Under setting [1], this compound yielded an inhibition at 0.1 µM of 92.9%.
On to `CSc1nccc(-c2ccc(S(=O)(=O)n3cc(C(C)=NNC(=N)N)c4ccccc43)s2)n1` [Example 49, 2-{1-[1-({5-[2-(methylthio)pyrimidin-4-yl]thien-2-yl}sulfonyl)-1H-indol-3-yl]ethylidene}-hydrazinecarboximidamide], for which the inhibition at 0.1 µM under setting [1] was found to be 33%.
For `CC(=NNC(=N)N)c1c(-c2ccc3ccccc3c2)n(S(=O)(=O)c2ccccc2)c2ccccc12` [Example 14, 2-{1-[2-(2-naphthyl)-1-(phenylsulfonyl)-1H-indol-3-yl]ethylidene}hydrazinecarboximidamide], the inhibition at 1 µM under setting [2] came to 85.4%.
The compound `CC(=NNC(=N)N)c1cn(S(=O)(=O)c2c(Cl)nc3sccn23)c2ccccc12` [Example 36, 2-(1-{1-[(6-chloroimidazo[2,1-b][1,3]thiazol-5-yl)sulfonyl]-1H-indol-3-yl}ethylidene)hydrazinecarboximidamide] showed a Ki of 8 nM. Testing at 0.1 µM under setting [1] gave an inhibition of 86.4%.
The compound `CC(=NNC(=N)N)c1cn(S(=O)(=O)c2sc(Cl)cc2Br)c2ccccc12` [Example 29, 2-(1-{1-[(3-bromo-5-chlorothien-2-yl)sulfonyl]-1H-indol-3-yl}ethylidene)hydrazinecarboximidamide] showed an inhibition at 0.1 µM under setting [1] of 60.3%.
`CCCCC(=NNC(=N)N)c1cn(S(=O)(=O)c2ccc(OC)cc2)c2ccc(Cl)cc12` [Example 79, 2-(1-{5-chloro-1-[(4-methoxyphenyl)sulfonyl]-1H-indol-3-yl}pentylidene)hydrazinecarboximidamide]: the inhibition at 1 µM under setting [2] is 61%.
`CCCCC(=NNC(=N)N)c1cn(S(C)(=O)=O)c2cc(F)ccc12` [Example 101, 2-{1-[6-fluoro-1-(methylsulfonyl)-1H-indol-3-yl]pentylidene}hydrazinecarboximidamide]: the inhibition at 1 µM under setting [2] was determined as 77.4%.
Regarding `CCC(=NNC(=N)N)c1cn(S(=O)(=O)c2ccc3ccccc3c2)c2ccc(F)cc12` [Example 120, 2-{1-[5-fluoro-1-(2-naphthylsulfonyl)-1H-indol-3-yl]propylidene}hydrazinecarboximidamide], the affinity corresponds to a Ki of 85 nM.
`CC(=NNC(=N)N)c1cn(S(=O)(=O)c2ccccc2)c2ccccc12` [Example 9, 2-{1-[1-(phenylsulfonyl)-1H-indol-3-yl]ethylidene}hydrazinecarboximidamide] yielded a Ki of 7 nM. The inhibition at 1 µM under setting [2] was found to be 99.5%.
Take `CC(=NNC(=N)N)c1cn(S(=O)(=O)c2ccccc2)c2ccc(F)cc12` [Example 19, 2-{1-[5-fluoro-1-(phenylsulfonyl)-1H-indol-3-yl]ethylidene}hydrazinecarboximidamide]: under setting [1], the inhibition at 0.1 µM was 82.4%.
Consider `COc1ccc(S(=O)(=O)n2cc(C(=NNC(=N)N)C3CC3)c3cc(Cl)ccc32)cc1` [Example 80, 2-[{5-chloro-1-[(4-methoxyphenyl)sulfonyl]-1H-indol-3-yl}(cyclopropyl)methylidene]hydrazinecarboximidamide], for which the inhibition at 0.1 µM under setting [1] amounted to 74%.
Still for that read-out and setting: then `CC(=NNC(=N)N)c1cn(S(C)(=O)=O)c2ccc(Cl)cc12` [Example 72, 2-{1-[5-chloro-1-(methylsulfonyl)-1H-indol-3-yl]ethylidene}hydrazinecarboximidamide], with 75.1%; and `CC(=NNC(=N)N)c1cn(C(=O)Oc2ccccc2)c2ccccc12` [Example 128, phenyl 3-(1-{2-[amino(imino)methyl]hydrazono}ethyl)-1H-indole-1-carboxylate], with 23.9%; and `CCCCS(=O)(=O)n1cc(C(C)=NNC(=N)N)c2ccc(F)cc21` [Example 103, 2-{1-[1-(butylsulfonyl)-6-fluoro-1H-indol-3-yl]ethylidene}hydrazinecarboximidamide], with 69.4%.
The compound `CCC(=NNC(=N)N)c1cn(S(=O)(=O)c2ccc(N)cc2)c2ccc(F)cc12` [Example 119, 2-(1-{1-[(4-aminophenyl)sulfonyl]-5-fluoro-1H-indol-3-yl}propylidene)hydrazinecarboximidamide] had a Ki of 2 nM.
For the compound `CC(=NNC(=N)N)c1cn(S(=O)(=O)c2ccc(-c3ccccc3)cc2)c2ccccc12` [Example 26, 2-{1-[1-([1,1′-biphenyl]-4-ylsulfonyl)-1H-indol-3-yl]ethylidene}hydrazinecarboximidamide], under setting [1], testing at 0.1 µM gave an inhibition of 39.7%.
Same read-out and setting: then `CC(=NNC(=N)N)c1cn(S(=O)(=O)c2ccccc2)c2ccc(Cl)cc12` [Example 84, 2-{1-[5-chloro-1-(phenylsulfonyl)-1H-indol-3-yl]ethylidene}hydrazinecarboximidamide], with 81.7%.
`COc1ccc(S(=O)(=O)n2cc(C(C)=NNC(=N)N)c3ccccc32)cc1OC` [Example 69, 2-(1-{1-[(3,4-dimethoxyphenyl)sulfonyl]-1H-indol-3-yl}ethylidene)hydrazinecarboximidamide] yielded a Ki of 12 nM. Moreover, at 0.1 µM the inhibition under setting [1] was 72.4%.
On to `CCC(=NNC(=N)N)c1cn(S(=O)(=O)c2ccc(N)cc2)c2ccc(Cl)cc12` [Example 121, 2-(1-{1-[(4-aminophenyl)sulfonyl]-5-chloro-1H-indol-3-yl}propylidene)hydrazinecarboximidamide], for which the Ki is 9 nM.
For the compound `COc1ccc(S(=O)(=O)n2cc(C(C)=NNC(=N)N)c3ccc(F)cc32)cc1` [Example 106, 2-(1-{6-fluoro-1-[(4-methoxyphenyl)sulfonyl]-1H-indol-3-yl}ethylidene)hydrazinecarboximidamide], the inhibition at 1 µM under setting [2] amounted to 64.4%.
As for `CC(=NNC(=N)N)c1c(-c2ccc(F)c(Cl)c2)n(S(=O)(=O)c2ccccc2)c2ccccc12` [Example 12, 2-{1-[2-(3-chloro-4-fluorophenyl)-1-(phenylsulfonyl)-1H-indol-3-yl]ethylidene}hydrazinecarboximidamide], the inhibition at 1 µM under setting [2] is 75.6%.
As for `CCCCCNC(=N)NN=C(C)c1cn(S(=O)(=O)c2ccccc2)c2ccccc12` [Example 123, N-Pentyl-2-{1-[1-(phenylsulfonyl)-1H-indol-3-yl]ethylidene}-hydrazinecarboximidamide], the Ki came out at 12 nM. Moreover, the inhibition at 0.1 µM under setting [1] stood at 34%.
`CC(=NNC(=N)N)c1cn(S(=O)(=O)c2ccc(-c3cc(C(F)(F)F)n(C)n3)s2)c2ccccc12` [Example 45, 2-{1-[1-({5-[1-methyl-5-(trifluoromethyl)-1H-pyrazol-3-yl]thien-2-yl}sulfony)-1H-indol-3-yl]ethylidene}hydrazinecarboximidamide]: the “% Inhibition” value under setting [1] is 23.5%.
With `CC(=NNC(=N)N)c1cn(S(=O)(=O)c2cc(Br)c(Cl)s2)c2ccccc12` [Example 28, 2-(1-{1-[(4-bromo-5-chlorothien-2-yl)sulfonyl]-1H-indol-3-yl}ethylidene)hydrazinecarboximidamide], the inhibition at 0.1 µM under setting [1] came out at 58.3%.
Regarding `CCCCC(=NNC(=N)N)c1c(-c2ccc(Cl)cc2)n(S(C)(=O)=O)c2ccccc12` [Example 91, 2-{1-[2-(4-chlorophenyl)-1-(methylsulfonyl)-1H-indol-3-yl]pentylidene}hydrazinecarboximidamide], the inhibition at 1 µM under setting [2] was 9%.
On to `Cc1ccc(S(=O)(=O)n2cc(C=NNC(=N)N)c3ccccc32)cc1` [Example 3, 2-({1-[(4-methylphenyl)sulfonyl]-1H-indol-3-l}methylidene)hydrazinecarboximidamide], for which the “% Inhibition” value under setting [2] is on record as 71.0%.
Consider `COc1ccc(S(=O)(=O)n2cc(C(C)=NNC(=N)N)c3ccccc32)cc1` [Example 61, 2-(1-{1-[(4-methoxyphenyl)sulfonyl]-1H-indol-3-yl}ethylidene)hydrazinecarboximidamide], for which the inhibition at 1 µM under setting [2] is 83.6%.
On the same count and under the same terms, then `CCCCC(=NNC(=N)N)c1cn(S(=O)(=O)c2ccc(OC)c(OC)c2)c2ccccc12` [Example 70, 2-(1-{1-[(3,4-dimethoxyphenyl)sulfonyl]-1H-indol-3-yl}pentylidene)hydrazinecarboximidamide], with 89.8%.
Turning to `CC(C)CC(=NNC(=N)N)c1cn(S(=O)(=O)c2ccccc2)c2ccccc12` [Example 7, 2-{3-methyl-1-[1-(phenylsulfonyl)-1H-indol-3-yl]butylidene}hydrazinecarboximidamide], the affinity, expressed as Ki, was 12 nM. Also, under setting [2], the inhibition at 1 µM is 98.5%.
